Laboratory results as given in patent US20020106707A1, “Compositions and methods for detecting and quantifying COX-2 activity and anandamide metabolites” (priority 2000, published 2002).
Read-outs that look alike come from different tables or passages of the source.

Assays:
COX-2 = molecular target: T1, COX-2 (Mus musculus, UniProt Q05769); conditions: 3 μM inhibitor; RAW264.7 cells activated with LPS (1 μg/mL) and IFN-γ (10 units/mL), AEA 20 μM
T1 sequence (Q05769 18-604): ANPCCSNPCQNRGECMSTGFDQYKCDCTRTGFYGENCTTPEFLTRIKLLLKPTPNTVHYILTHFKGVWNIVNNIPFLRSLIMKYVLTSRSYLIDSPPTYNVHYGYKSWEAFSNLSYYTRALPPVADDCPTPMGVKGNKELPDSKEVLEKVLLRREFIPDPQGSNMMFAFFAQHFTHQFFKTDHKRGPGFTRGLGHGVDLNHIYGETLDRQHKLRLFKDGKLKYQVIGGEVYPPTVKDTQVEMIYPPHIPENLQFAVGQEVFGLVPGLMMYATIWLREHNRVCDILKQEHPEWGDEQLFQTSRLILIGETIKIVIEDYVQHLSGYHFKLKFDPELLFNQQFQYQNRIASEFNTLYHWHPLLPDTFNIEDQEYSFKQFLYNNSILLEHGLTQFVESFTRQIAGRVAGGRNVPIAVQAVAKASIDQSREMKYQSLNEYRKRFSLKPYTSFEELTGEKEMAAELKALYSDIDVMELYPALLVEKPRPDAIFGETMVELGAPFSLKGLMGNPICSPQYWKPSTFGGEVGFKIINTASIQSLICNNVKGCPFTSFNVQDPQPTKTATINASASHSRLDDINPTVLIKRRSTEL

[1] = rat

COc1ccc2c(c1)c(CC(=O)NCCc1ccccc1)c(C)n2C(=O)c1ccc(Cl)cc1 [indomethacin phenethylamide, 2-[1-(4-chlorobenzoyl)-5-methoxy-2-methyl-1H-indol-3-yl]-N-phenethylacetamide]
PGD2-EA biosynthesis (COX-2): inhibited

CCCCCC(=O)CCC1C(O)CC(=O)C1C/C=C\CCCC(=O)NCCO (centres unmarked) [13,14-dihydro-15-keto-PGE2-EA]
detection at 2 hours post-dosing ([1]; in vivo, iv, 2 mg/kg): routinely detected

CCCCC[C@H](O)/C=C/[C@H]1[C@H](O)CC(=O)[C@@H]1C/C=C\CCCC(=O)NCCO [PGE2-EA, prostaglandin E2 ethanolamide]
apparent volume of distribution ([1]; 2 mg/kg PGE2-EA IV): 300 to 400 mL | detection at 2 hours post-dosing ([1]; 2 mg/kg PGE2-EA IV, 2 hours post-dosing): routinely detected | calculated plasma half-life ([1]; 2 mg/kg PGE2-EA IV, n=3): 6.33 ± 0.833 min
